Patent US4089966A, “5-N-(3-Amino-2-hydroxy-propyl)-amino-1,2,4-oxadiazole derivatives, processes for their preparation and applications thereof” (Aron Sarl, priority 1975, dated 1978)
Counter-ions that a name gives are not always drawn. Like-named read-outs stand apart in the source and are kept apart here.

Legend:
[1] = Acute toxicity (LD 50%, semi-logarithmic technique of Lichfield and Wilcoxon); type: in vivo; details: for LD50: in vivo
Text: Each value represents the LD 50% expressed as mg/kg, according to the semi-logarithmic technique disclosed by Lichfield and Wilcoxon.

[2] = system: conduction anesthesia in guinea-pigs; experiment: Conduction anesthesia in guinea-pigs compared to Xylocaine; type: in vivo; details: Xylocaine = 1
[3] = Chronic toxicity, oral, 3 months, young adult rats; type: in vivo, rats of Sprague Dawley (Charles River) strain; details: oral, 25, 75 and 150 mg/kg during 3 months
Method: The compound of Example 1 was administered orally to young adult rats of Sprague Dawley (Charles River) strain, at dosages of 25, 75 and 150 mg/kg during 3 months.

[4] = system: disorders of the cardiac rhythm; experiment: Clinical tests, oral administration in patients suffering from disorders of the cardiac rhythm; type: in vivo; details: oral, 200, 400 and 600 mg
[5] = system: arrhythmia induced by Strophantine in combination with adrenaline; experiment: Preventive action on arrhythmia induced by perfusion of K-Strophantine in combination with adrenaline; type: in vivo, guinea-pits; details: K-Strophantine 0.I5mg/ml + Adrenaline 5μg/ml, ±SD, control 1.21±0.33
Method: (§1) a. Two Examples are given to show the preventive action, by the intravenous route:
(§2) 1. in guinea-pits, on arrhythmia induced by Strophantine alone or in combination with adrenaline;
(§3) The various compounds of the above Table are administered just prior to
(§4) perfusion of the arrhythmogenic materials (K-Strophantine,
(§5) K-Strophantine-Adrenaline, Aconitine). The values represent the period of
(§6) time ± SD (standard deviation) before the first signs of arrhythmia

[6] = Chronic toxicity, intravenous, 1 month, young male adult mice; type: in vivo; details: 1 and 5 mg/kg during 1 month
Method: The compound of Example 1 was also administered intravenously to young male adult mice, at dosages of 1 and 5 mg/kg during 1 month.

[7] = system: surface anesthesia in rabbits; experiment: Surface anesthesia in rabbits compared to Butacaine; type: in vivo; details: Butacaine = 1
[8] = system: disorders of the cardiac rhythm in non-anesthetized dogs 24 hours after coronary ligation; experiment: Curative activity on disorders of the cardiac rhythm 24 hours after coronary ligation (method according to Harris); type: in vivo; details: for Percent sinus rhythm after administration of the compound: extreme values in parenthesis
Text: b. An Example is given to show the curative activity by the oral route.
As is apparent from following Table IV, the effect is a function of the disage administered.

[9] = system: arrhythmia induced by Strophantine alone; experiment: Preventive action on arrhythmia induced by perfusion of K-Strophantine alone; type: in vivo, guinea-pits; details: K-Strophantine 0.I5mg/ml, 0.5ml/mn, ±SD, control 2.45±0.22
Method: as §1, §2, §3, §4, §5, §6

[10] = system: BaCl2 -induced contraction of the duodenum; experiment: Antispasmodic activity compared to Papaverine (BaCl2-induced contraction of the duodenum); details: Papaverine = 1
[11] = system: aconitine-induced rhythm disorders; experiment: Preventive action on aconitine-induced rhythm disorders; type: in vivo, rats; details: Aconitine 50mg/l, 0.2ml/mn, ±SD, control 85±15
Method: as §1
2. in rats, on aconitine-induced rhythm disorders.
as §3, §4, §5, §6

[12] = intravenous route, read-out: LD50, intravenous route
[13] = oral route, read-out: LD50, oral route

CCN(CC)CC(O)CN(C)c1nc(-c2ccccc2)no1 (stereo not drawn) [Example 1, 5-N-(3-diethylamino-2-hydroxy-propyl)-N-methylamino-3-phenyl-1,2,4-oxadiazole fumarate hydrate]
LD50 [1, 12]: 30 mg/kg | LD50 [1, 13]: 280 mg/kg | Ratio between the activity of compound (I) and the activity of Xylocaine for conduction anesthesia, on administration of a same dosage [2]: 1 | change of weight of the organs on autopsy [3]: No change of weight of the organs was found | hematologic examination, biochemical blood tests and urinalysis [3]: No anomaly was detected | histological anomaly on anatomicopathological examination [3]: No histological anomaly, and particularly no liver, kidney or brain injury was found | effects in patients suffering from disorders of the cardiac rhythm [4]: beneficial effects | Tolerance ([4]; patients): good | period of time before the first signs of arrhythmia appear ([5]; 10 mg/kg intravenous): 1.62±0.42 decimal minutes | glycemia and serum transaminase level [6]: comparable in the treated animals and in the control animals | hematological examination [6]: No substantial modifications were found | histological anomaly on autopsy [6]: No histological anomaly was found on autopsy, particularly no cytologic injury of the liver, the kidneys, the pancreas, the heart or the brain | local tolerance of the injections [6]: well tolerated locally | Ratio between the activity of compound (I) and the activity of Butacaine for surface anesthesia, on administration of a same dosage [7]: 1.5 | Percent sinus rhythm after administration of the compound ([8]; 10 mg/kg oral, 3 tests, prior to administration 5%(0-15%)): 25%(0-65%) | Percent sinus rhythm after administration of the compound ([8]; 25 mg/kg oral, 8 tests, prior to administration 5.6% (0-18%)): 59%(5-100%) | Percent sinus rhythm after administration of the compound ([8]; 50 mg/kg oral, 6 tests, prior to administration 7.6% (0-20%)): 71.6% (25-100%) | curative activity on disorders of the cardiac rhythm after coronary ligation (in words) ([8]; non-anesthetized dogs, oral route): corrects the disorders of the cardiac rhythm | period of time before the first signs of arrhythmia appear ([9]; 5 mg/kg intravenous): 3.27±0.4 decimal minutes | period of time before the first signs of arrhythmia appear ([9]; 10 mg/kg intravenous): 3.18±0.33 decimal minutes | Ratio between the dosage of Papaverine and the dosage of Compound (1) producing the same antispasmodic activity [10]: 1.5 | period of time before the first signs of arrhythmia appear ([11]; 5 mg/kg intravenous): 141 ± 28 s | period of time before the first signs of arrhythmia appear ([11]; 10 mg/kg intravenous): 126 ± 23 s

CCN(CC)CC(O)CNc1nc(-c2ccccc2)no1 (stereo not drawn) [Example 2]
LD50 [1, 12]: 55 mg/kg | LD50 [1, 13]: 700 mg/kg | Ratio between the activity of compound (I) and the activity of Xylocaine for conduction anesthesia, on administration of a same dosage [2]: 1.4 | period of time before the first signs of arrhythmia appear ([5]; 10 mg/kg intravenous): 2.73±0.5 decimal minutes | Ratio between the activity of compound (I) and the activity of Butacaine for surface anesthesia, on administration of a same dosage [7]: 1 | period of time before the first signs of arrhythmia appear ([9]; 10 mg/kg intravenous): 3.04±0.52 decimal minutes | Ratio between the dosage of Papaverine and the dosage of Compound (1) producing the same antispasmodic activity [10]: 1 | period of time before the first signs of arrhythmia appear ([11]; 10 mg/kg intravenous): 155 ± 32 s

CCN(CC)CC(O)CNc1nc(-c2ccc(F)cc2)no1 (stereo not drawn) [Example 4, 5-(3-diethylamino-2-hydroxy-propyl)-amino-3-(4-fluorophenyl)-1,2,4-oxadiazole fumarate]
LD50 [1, 13]: 750 mg/kg | Ratio between the activity of compound (I) and the activity of Xylocaine for conduction anesthesia, on administration of a same dosage [2]: 1.5 | Ratio between the activity of compound (I) and the activity of Butacaine for surface anesthesia, on administration of a same dosage [7]: 1.4

CCN(CC)CC(O)CN(CC)c1nc(-c2ccccc2)no1 (stereo not drawn) [Example 5]
LD50 [1, 12]: 18 mg/kg | LD50 [1, 13]: 200 mg/kg | Ratio between the activity of compound (I) and the activity of Xylocaine for conduction anesthesia, on administration of a same dosage [2]: 1.7 | period of time before the first signs of arrhythmia appear ([5]; 5 mg/kg intravenous): 1.60±0.35 decimal minutes | Ratio between the activity of compound (I) and the activity of Butacaine for surface anesthesia, on administration of a same dosage [7]: 1.7 | period of time before the first signs of arrhythmia appear ([9]; 5 mg/kg intravenous): 3.43±0.51 decimal minutes | Ratio between the dosage of Papaverine and the dosage of Compound (1) producing the same antispasmodic activity [10]: 3 | period of time before the first signs of arrhythmia appear ([11]; 5 mg/kg intravenous): 119 ± 15.5 s

CCCN(CC(O)CN(CC)CC)c1nc(-c2ccccc2)no1 (stereo not drawn) [Example 7, 5-[N-(3-diethylamino-2-hydroxy-propyl)-N-propyl]amino-3-phenyl-1,2,4-oxadiazole fumarate hydrate]
LD50 [1, 13]: 250 mg/kg | insoluble (entry in place of the intravenous LD50) ([1]; intravenous route): inso- | period of time before the first signs of arrhythmia appear ([5]; 2.5 mg/kg intravenous): 1.74±0.16 decimal minutes | period of time before the first signs of arrhythmia appear ([9]; 2.5 mg/kg intravenous): 2.85±0.1 decimal minutes | period of time before the first signs of arrhythmia appear ([11]; 2.5 mg/kg intravenous): 185 ± 48 s

C=CCN(CC(O)CN(CC)CC)c1nc(-c2ccccc2)no1 (stereo not drawn) [Example 8]
Ratio between the activity of compound (I) and the activity of Xylocaine for conduction anesthesia, on administration of a same dosage [2]: 1 | Ratio between the activity of compound (I) and the activity of Butacaine for surface anesthesia, on administration of a same dosage [7]: 1.5 | Ratio between the dosage of Papaverine and the dosage of Compound (1) producing the same antispasmodic activity [10]: 2.5

CCCN(CCC)CC(O)CN(C)c1nc(-c2ccccc2)no1 (stereo not drawn) [Example 9, 5-N-(3-dipropylamino-2-hydroxy-propyl)-N-methylamino-3-phenyl-1,2,4-oxadiazole fumarate hydrate]
LD50 [1, 12]: 50 mg/kg | LD50 [1, 13]: 250 mg/kg | Ratio between the activity of compound (I) and the activity of Xylocaine for conduction anesthesia, on administration of a same dosage [2]: 1.6 | period of time before the first signs of arrhythmia appear ([5]; 2.5 mg/kg intravenous): 1.77±0.08 decimal minutes | Ratio between the activity of compound (I) and the activity of Butacaine for surface anesthesia, on administration of a same dosage [7]: 1.65 | Ratio between the dosage of Papaverine and the dosage of Compound (1) producing the same antispasmodic activity [10]: 4

CN1CCN(CC(O)CNc2nc(-c3ccccc3)no2)CC1 (stereo not drawn) [Example 10]
LD50 [1, 13]: 750 mg/kg | insoluble (entry in place of the intravenous LD50) ([1]; intravenous route): inso-

CCN(CC)CC(O)CN(C)c1nc(-c2ccncc2)no1 (stereo not drawn) [Example 11]
LD50 [1, 12]: 100 mg/kg | LD50 [1, 13]: 750 mg/kg | Ratio between the activity of compound (I) and the activity of Xylocaine for conduction anesthesia, on administration of a same dosage [2]: 1 | period of time before the first signs of arrhythmia appear ([5]; 10 mg/kg intravenous): 1.3±0.3 decimal minutes | Ratio between the activity of compound (I) and the activity of Butacaine for surface anesthesia, on administration of a same dosage [7]: 1.5 | Ratio between the dosage of Papaverine and the dosage of Compound (1) producing the same antispasmodic activity [10]: 0.2 | period of time before the first signs of arrhythmia appear ([11]; 20 mg/kg intravenous): 129 ± 21 s

CCNCC(O)CN(CC)c1nc(-c2ccccc2)no1 (stereo not drawn) [Example 12]
Ratio between the activity of compound (I) and the activity of Xylocaine for conduction anesthesia, on administration of a same dosage [2]: 1.65 | Ratio between the activity of compound (I) and the activity of Butacaine for surface anesthesia, on administration of a same dosage [7]: 1 | Ratio between the dosage of Papaverine and the dosage of Compound (1) producing the same antispasmodic activity [10]: 0.8

COc1ccc(Cc2nccc3cc(OC)c(OC)cc23)cc1OC [Papaverine, reference compound]
Ratio between the dosage of Papaverine and the dosage of Compound (1) producing the same antispasmodic activity [10]: 1
